The text below walks through data of patent US20090220996A1, “In vitro Assay Methods for Classifying Embryotoxicity of Compounds” (RELIANCE LIFE SCIENCES PVT LTD., priority 2007, published 2009).

≈ marks a conversion by molar mass, not a printed value. Read-outs that look alike come from different tables or passages of the source.

Experiment [1] relates to human embryonic stem cells (hES). Description: Cytotoxicity in undifferentiated human embryonic stem cells, day 15 (FACS with PI / CyQUANT). Type of experiment: cell-based. Conditions: for IC50: Homo sapiens, Embryonic stem cell. As to the method:
In general, the presently disclosed embryotoxicity testing protocols comprise the following sequence of steps. Studies using embryoid bodies generally comprise: a) preparation of various concentrations of test solutions in culture medium or a desired solvent; b) preparation of a cell suspension by enzymatic digestion of human embryonic stem cell colonies; c) culturing the cell suspension for formation of embryoid bodies in the presence and absence of one or more test solutions, and incubation for several days (e.g., three days) in hanging drops; d) cultivation of the embryoid bodies in bacteriological petri dishes for several days (e.g., two days) under controlled conditions; e) transfer of the embryoid bodies into 96 well plates and incubation for several days (e.g., 10 days) in the presence of one or more test solutions; and f) detection of the viability of the embryoid bodies after 15 days by MTT assay, or fluorescent or luminescent method, and isolation of RNA for studying gene expression. Studies using human foreskin fibroblasts (HFF) generally comprise: a) preparation of various concentrations of test solutions in culture medium or a desired solvent; b) plating of HFF cells in 96 well plates in the presence or absence of one or more test solutions for 15 days, changing the media and test solutions every 2 days; and c) detection of the viability of HFF after 15 days by MTT assay, or fluorescent or luminescent method. Studies using human embryonic stem cells generally comprise: a) preparation of various concentrations of test solutions in culture medium or a desired solvent; b) preparation of hES colonies by manual passage in the presence and absence of one or more test solutions, and incubation for 15 days on matrigel coated plates changing the media and test solutions every 2 days; c) disruption of the colonies after 15 days with enzymes to form single cells; d) labeling of single cells with a fluorescently-labeled dye, such as propidium iodide (“PI”); and e) detection of the percentage viability with FACS as a measure of cytotoxicity. […]
After 2 hours incubation, 150 μl of assay medium containing the appropriate concentration of test chemical (150 μl volume contains 1.333× the final chemical concentration) was added. Appropriate blanks without the chemicals were used along with the test samples The cell cultures were incubated at 5% CO2 and 37° C. for 3 days. On day 3, test solution was removed with the care, so that the cell layer on the bottom of the wells was not disturbed. Next, 200 μl of freshly prepared test solution (final concentration/well as on day 0) was added, and the cell cultures were incubated at 5% CO2 and 37° C. for 3 days. This process was repeated on days 6, 9, and 12. Determination of cell growth inhibition was performed at day 15 of the assay using MTT reagent. Cytotoxicity for hES cells was calculated using flow cytometry. Briefly, cells were placed on matrigel coated plates along with different test compound concentrations. Media was replaced every 3 days along with the different test compound concentrations. At day 15, hES cells were collected by trypsinization, and after washing with PBS, the cells were incubated with PI for 10 minutes in the dark. Percent viability for various test compound concentrations was calculated using flow cytometry.
(§1) Cytotoxicity analysis of three cell types (hES, hEBs and HFF) was evaluated using the CyQUANT assay following compound treatment. All data were the mean of three independent experiments for each cell type. Data is represented as the mean±SE.

Experiment [2] relates to human foreskin fibroblasts (HFF). Description: Cytotoxicity in human foreskin fibroblasts, day 15 (MTT / CyQUANT). Type of experiment: cell-based. The following applies: for IC50: Homo sapiens, Fibroblast. As for the experimental part:
In general, the presently disclosed embryotoxicity testing protocols comprise the following sequence of steps. Studies using embryoid bodies generally comprise: a) preparation of various concentrations of test solutions in culture medium or a desired solvent; b) preparation of a cell suspension by enzymatic digestion of human embryonic stem cell colonies; c) culturing the cell suspension for formation of embryoid bodies in the presence and absence of one or more test solutions, and incubation for several days (e.g., three days) in hanging drops; d) cultivation of the embryoid bodies in bacteriological petri dishes for several days (e.g., two days) under controlled conditions; e) transfer of the embryoid bodies into 96 well plates and incubation for several days (e.g., 10 days) in the presence of one or more test solutions; and f) detection of the viability of the embryoid bodies after 15 days by MTT assay, or fluorescent or luminescent method, and isolation of RNA for studying gene expression. Studies using human foreskin fibroblasts (HFF) generally comprise: a) preparation of various concentrations of test solutions in culture medium or a desired solvent; b) plating of HFF cells in 96 well plates in the presence or absence of one or more test solutions for 15 days, changing the media and test solutions every 2 days; and c) detection of the viability of HFF after 15 days by MTT assay, or fluorescent or luminescent method. Studies using human embryonic stem cells generally comprise: a) preparation of various concentrations of test solutions in culture medium or a desired solvent; b) preparation of hES colonies by manual passage in the presence and absence of one or more test solutions, and incubation for 15 days on matrigel coated plates changing the media and test solutions every 2 days; c) disruption of the colonies after 15 days with enzymes to form single cells; d) labeling of single cells with a fluorescently-labeled dye, such as propidium iodide (“PI”); and e) detection of the percentage viability with FACS as a measure of cytotoxicity.
HFF were trypsinized, and a cell suspension of 1×10^4 cells/ml in routine culture medium was prepared. Using a multi-channel pipette, 50 μl volumes of the cell suspension (500 cells/well) was dispensed. Viability of the cells can be checked by staining an aliquot of the cell suspension with trypan blue. A viability of 90% is acceptable. The cells were incubated for 2 hours in a humidified atmosphere with 5% CO2 at 37° C., which allows for adherence of the cells. After 15 days of culture with medium changes (containing appropriate test compound concentrations) every 3 days, the viability of the cells was determined using the MTT test, which was detected quantitatively using a microplate ELISA reader at 570 nm with a 630 nm reference filter.
as §1
The endpoints of detection chosen in the study was inhibition of cell proliferation in human ES cells (IC50 hES), differentiating EBs (IC50 hEB), and in HFF (IC50 HFF), as evidenced in a cell viability assay using CyQuant assay.

Setting [3] is: 360 h, Table 3, mean of 3 experiments, day 15, read-out: IC50-hES.
Where [4] appears, read: 360 h, Table 3, mean of 3 experiments, day 15, read-out: IC50-HFF.
The mark [5] stands for this setting: Table 4, CyQuant cell viability assay, read-out: Human EST IC50 - hES.
[6] abbreviates: Table 4, CyQuant cell viability assay, read-out: Human EST IC50 - HFF.
The mark [7] stands for this setting: Table 3, mean of 3 experiments, day 15.
[8] abbreviates: Table 4, CyQuant cell viability assay.

One may read the IC50 as the concentration that gives 50% inhibition. Regarding `O=c1[nH]cc(F)c(=O)[nH]1` [5-Fluorouracil, 5-fluorouracil], the IC50 came to 0.546 µg/mL (≈ 4.2 µM) in experiment [1] (setting [3]) and 0.11 µg/mL (≈ 0.848 µM) in experiment [2] (setting [4]). The survival percentage in experiment [1] (hES, 1 μg/ml, day 15, FIG. 3A) is reported as 30%; in experiment [2] (HFF, 1 μg/ml, day 15, FIG. 3A), 7%. In addition, the “effect on cell viability” value was “no major effect” in experiment [1] (hES, up to 0.01 μg/ml, FIG. 3A) and “no major effect” in experiment [2] (HFF, up to 0.01 μg/ml, FIG. 3A).
Turning to `CS(=O)(=O)OCCCCOS(C)(=O)=O` [Busulfan, busulfan], the IC50 was 2.1 ± 0.6 µg/mL (≈ 8.53 µM) in experiment [1] (setting [3]), 2.1 ± 0.6 µg/mL (≈ 8.53 µM) in experiment [1] (setting [5]), 2.7 ± 0.2 µg/mL (≈ 11 µM) in experiment [2] (setting [4]) and 2.7 ± 0.2 µg/mL (≈ 11 µM) in experiment [2] (setting [6]).
Take `Cn1c(=O)c2c(ncn2C)n(C)c1=O` [Caffeine, caffeine]: the IC50 in experiment [1] (setting [3]) is 110 ± 12.5 µg/mL (≈ 566 µM); in experiment [1] (setting [5]) it was 110 ± 12.5 µg/mL (≈ 566 µM); in experiment [2] (setting [4]), 79.3 ± 3.4 µg/mL (≈ 408 µM); in experiment [2] (setting [6]), 79.3 ± 3.4 µg/mL (≈ 408 µM). The survival result in experiment [1] (hES, 500 μg/ml, FIG. 3B) is recorded as “about 10%”; in experiment [2] (HFF, 500 μg/ml, FIG. 3B), “about 10%”.
In the case of `NC(=O)NO` [Hydroxyurea, hydroxyurea], the IC50 in experiment [1] (setting [3]) came to 2.6 ± 0.2 µg/mL (≈ 34.2 µM); in experiment [1] (setting [5]), 2.6 ± 0.2 µg/mL (≈ 34.2 µM); in experiment [2] (setting [4]) it was 8.9 ± 0.9 µg/mL (≈ 117 µM); in experiment [2] (setting [6]), 8.9 ± 0.9 µg/mL (≈ 117 µM).
Regarding `COc1ccc2c(c1)c(CC(=O)O)c(C)n2C(=O)c1ccc(Cl)cc1` [Indomethacin, indomethacin], the IC50 in experiment [1] (setting [3]) was found to be 73.4 ± 3.4 µg/mL (≈ 205 µM); in experiment [1] (setting [5]), 73.4 ± 3.4 µg/mL (≈ 205 µM); in experiment [2] (setting [4]), 33.5 ± 1.3 µg/mL (≈ 93.6 µM); in experiment [2] (setting [6]), 33.5 ± 1.3 µg/mL (≈ 93.6 µM).
In experiment [1] (setting [7]), `CC1(C)S[C@@H]2[C@H](NC(=O)Cc3ccccc3)C(=O)N2[C@H]1C(=O)O` [Penicillin G, penicillin G] had an IC50-hES of 2013 ± 23.5 µg/mL (≈ 6020 µM). In addition, the “Human EST IC50 - hES” value in experiment [1] (setting [8]) turned out to be 2013 ± 23.5 µg/mL. Moreover, the cell survival in experiment [1] (hES, 5000 μg/ml (highest dose), FIG. 3C) was 1-2%; in experiment [2] (HFF, 5000 μg/ml (highest dose), FIG. 3C), 1-2%. In experiment [2] (setting [7]), the IC50-HFF turned out to be 1661 ± 23.5 µg/mL (≈ 4970 µM). Further, in experiment [2] (setting [8]), the “Human EST IC50 - HFF” value was 1661 ± 23.5 µg/mL.
